Measured values published in patent US20030100572A1, “Novel pyridopyrimidones and uses thereof” (ARIAD PHARMACEUTICALS,INC., priority 2001, published 2003).

Experiment: Hydroxyapatite Assay (hydroxyapatite adsorption chromatography)
Assay type: physicochemical
Conditions: corrected retention K=(retention time-void time)/void on TSK-Gel HA 1000 HPLC column; linear gradient 10 mM to 500 mM sodium phosphate, 0.15 N NaCl, pH 6.8
Text: Hydroxyapatite is the principal mineral component of bone. Hydroxyapatite adsorption chromatography is used as an assay to evaluate the bone-targeting potential of both individual bone-targeting moieties (“monomers”) and of pharmaceuticals incorporating bone-targeting groups.
The rentention time of the compound is expressed in terms of K=(retention time-void time)/void. This K value is corrected using two reference compounds to correct from inter-column and inter-system variation to obtain a K′ value.
Reference Compounds: K′ values were determined for known bone targeted compounds, the bisphosphonate, alendronate and tetracycline.

## NCCCC(O)(P(=O)(O)O)P(=O)(O)O [Alendronate, alendronate]
  K′ value: 3.7
